Measured values: patent US20180051284A1, “INHIBITORS OF MIR-17-92 CLUSTER FOR ANTI-TUMOR ACTIVITY IN MULTIPLE MYELOMA AND OTHER MALIGNANCIES” (priority 2014, published 2018)
l = locked nucleic acid (LNA); d = 2'-deoxy (DNA)

Experiments:
[1] = system: PTEN, AKT, ERK, E2F-1, p14/ARF-p53 and intrinsic apoptotic pathway proteins in NCI-H929 cells; assay: Western blot analysis of molecular perturbations after gymnotic exposure; format: cell-based, Human
Experimental: SDS-PAGE and Western Blotting (WB) were performed according to standard protocols. Briefly, cells were lysed by lysis buffer containing 15mM Tris/HCl pH 7.5, 120mM NaCl, 25mM KCI, 1mM EDTA, 0.5% Triton 100, Halt Protease Inhibitor Single-Use cocktail (100X, Thermo Scientific). Whole cells lysates (50 μg per lane) were separated using 4-12% Novex Bis-Tris SDS-acrylamide gels (Invitrogen), electro-transferred on Nitrocellulose membranes (Bio-Rad), and immunoblotted with the antibodies. Membranes were washed 3 times in PBS-Tween and then incubated with a secondary antibody conjugated with horseradish peroxidase in 0.5% milk for 2 hours at room temperature. Chemiluminescence was detected using Western Blotting Luminol Reagent (sc-2048, Santa Cruz, Dallas, Tex., USA). Signal intensity was quantified with the Quantity One Analyzing System (Bio-Rad).
MiRNAs are a class of non coding RNAs that regulate gene expression at post-transcriptional levels. Each miRNA may regulate the expression of several (hundreds) genes. Since LNA/DNA gapmers inhibit the biogenisis of the six members of the miR-17-92 cluster, a wide perturbation in the expression of target genes is predictable. Therefore, we gymnotically exposed NCI-H929 cells for 6 days to gapmer_06 or scrambled controls and, by western blotting, we analyzed molecular perturbations at protein levels.

[2] = system: NCI-H929 MM xenografts; assay: In vivo anti-MM activity in NCI-H929 xenografted SCID/NOD mice
From the text: Male CB-17 severe combined immunodeficient (SCID) mice (6- to 8-weeks old; Harlan Laboratories, Inc., Indianapolis) were housed and monitored in our Animal Research Facility. All experimental procedures and protocols had been approved by the Institutional Ethical Committee (Magna Graecia University) and conducted according to protocols approved by the National Directorate of Veterinary Services (Italy). In accordance with institutional guidelines, mice were sacrificed when tumors reached 2 cm in diameter or in the event of paralysis or major compromise, to prevent unnecessary suffering. Animal experimental procedures have been performed as in previous reports (Di Martino et al, CCR 2012; Di Martino el al. Oncotarget 2013, Di Martino et al PlosOne 2014). Briefly, mice were subcutaneously inoculated with 5×10^6 NCI-H929 cells and treatments started when palpable tumors became detectable, approximately 3 weeks following injection of MM cells. Treatments were performed intraperitoneally with different schedules in order to reach the Maximun Tolerated Dose (MTD) and a dose-response curve. Mice were also inoculated with 5×10^6 luciferase gene-marked U266, AMO-1, AMO-1/abzb, treatments were performed intraperitoneally (i.p.), and tumor volume were measured by IVIS Lumina II.
The tumor sizes were assessed by Caliper measurement. […]

[3] = system: RPMI-8226, KMS-12-BM and NCI-H929 MM cells; assay: CCK-8 cell growth assay after transfection; format: cell-based, Human; conditions: transfection with 25 nM
Experimental: 3×10^5 cells were transfected using Neon Transfection System (Invitrogen, Calif.,U.S.), (2 pulses at 1150, 30ms). The transfection efficiency evaluated by flow-cytometric analysis relative to a FAM dye—labeled anti-miR—negative control reached 85% to 90%.
Cells were seeded in 100 μL (suspension cell lines) or 50 μL (adherent cell lines) of culture medium at a density ranging from 0,5 to 2,5×10^3 cells per well. Survival was evaluated by both Cell Counting Kit-8 colorimetric assay (CCK-8, Dojindo Molecular Technologies, Japan) and CellTiter-Glo Luminescent Cell Viability Assay (Promega Madison, Wis., USA). Assays were performed according to the manufacturer's instructions. The optical density (OD) was evaluated at wave length of 450 nm. Both OD and luminescence were recorded with the GloMax-multi detection system (Promega, Madison, Wis., USA).

[4] = NCI-H929, 6 days gymnotic exposure, 2,5 μM

gapmer_06: LNA/DNA gapmer, SEQ ID 4 (14 mer): +T*+A*+C*T*T*G*C*T*T*G*G*+C*+T*+T; + LNA, * phosphorothioate (antisense TACTTGCTTGGCTT; sugars from the 5' end l3 d8 l3, all phosphorothioate, methylation of C not given here)
E2F-1 protein level (Western Blot) [1, 4]: strongly up-regulated
anti-apoptotic proteins Bcl-2, Mcl-1 (Western Blot) [1, 4]: down-regulation of anti-apoptotic proteins
caspase-3 cleavage (Western Blot) [1, 4]: caspase-3 cleavege
p-AKT and p-ERK (phosphorylated/active forms, Western Blot) [1, 4]: reduction of the phopshorylated / active forms
pro-apoptotic proteins Puma, Bak, Bax, Bid and Bim (Western Blot) [1, 4]: up-regulation of pro-apototic proteins
PTEN protein level (Western Blot) ([1]; NCI-H929, 6 days gymnotic exposure, 2,5 μM, vs scrambled controls): strong up-regulation
p14/ARF-p53 fail-safe axis (Western Blot) ([1]; p53-wild-type NCI-H929, 6 days gymnotic exposure, 2,5 μM): triggers the p14/ARF-p53 fail-safe axis
survival (Kaplan-Meier) ([2]; intraperitoneal treatment, as compared to saline): significant prolongation of survival
tumor growth (caliper tumor volume) ([2]; intraperitoneally, 75-50-25 μg once weekly or 25-12.5 μg twice weekly, vs saline): significant (P<0.05) inhibition of tumor growth in a dose dependent-manner
biological effect on cell growth (CCK-8) compared with single miRNA inhibitors for miR-17/18a/19a/19b/20a/92a [3]: strongest biological effects
cell growth inhibition (CCK-8 assay) ([3]; up to 96 hours, compared among the eight gapmers): strongest cell growth inhibition
